Values quoted from earlier work, collected in patent publication US20240335458A1, “OPHTHALMIC COMPOSITION FOR THE TREATMENT OF VISUAL DISORDERS” (FOODVICA, S.A. DE C.V., priority 2021, published 2024).

Key:
[1] = tested on: sodium selenite-induced cataract
[2] = tested on: protein aggregates obtained from surgically removed cataracts; settings: 2 mg/ml protein aggregates, 10 µM and 200 μM, 6-day treatment at room temperature
cataracts = settings: 14 intravitreal injections of lanosterol nanoparticles (final dose 1.4 mg) plus 50 μL drops 3 times a day for 6 weeks, 7 dogs
rat lens opacities = settings: 15 mM lanosterol in liposomes
[3] = tested on: age-related cataract human lens nuclei; settings: 25 mM lanosterol solution, 6 days
[4] = tested on: natural cataract lens of rabbits; settings: 25 mM lanosterol, 6 days

Row | Compound | Levels of lipid peroxidation, enzymatic and non-enzymatic antioxidants ([1]; curcumin 75 mg/kg body weight single dose, sodium selenite 15 μM/kg body weight) | aA- and aB-crystallin and Hsp 70 expression ([1]; selenite-induced cataractogenesis) | Macroscopic clearing of protein aggregate solutions [2] | Reduction of cataract stage (cataracts) | Reversal of lens opacities (rat lens opacities) | Reversal of opacification of cataract nuclei [3] | Lens clarity before and after treatment [4]
1 | COc1cc(/C=C/C(=O)CC(=O)/C=C/c2ccc(O)c(OC)c2)ccc1O [curcumin] | significant reduction | suppressed aA- and aB-crystallin expression induced by selenite and Hsp 70 | – | – | – | – | –
2 | C[C@H](CCCC(C)(C)O)[C@H]1CC[C@H]2[C@@H]3CC=C4C[C@@H](O)CC[C@]4(C)[C@H]3CC[C@]12C [25-hydroxycholesterol] | – | – | dramatically cleared the originally dark solutions in a dose-dependent way | – | – | – | –
3 | CC(C)=CCC[C@@H](C)[C@H]1CC[C@@]2(C)C3=C(CC[C@]12C)[C@@]1(C)CC[C@H](O)C(C)(C)[C@@H]1CC3 [lanosterol] | – | – | dramatically cleared the originally dark solutions in a dose-dependent way | reduce up to two degrees the stage of cataracts | failed to reverse the opacities or prevent progression | did not reverse the opacification | solid trend towards reduction of cataract severity
